{"source": "patent US20150174144A1", "about": "“TETRACYCLINE COMPOUNDS FOR TREATING NEURODEGENERATIVE DISORDERS” (PARATEK PHARMACEUTICALS, INC., priority 2012, published 2015)", "key": {"[1]": {"system": "Fmr1 KO mice and wild-type littermates", "assay": "Open Field test, mouse model of Fragile X Syndrome", "type": "in vivo", "details": "10 mg/kg/d i.p. osmotic pump, 1 week", "protocol": "The purpose of this study was to test Compound 1 for treating Fragile X Syndrome. This study utilized Fmr1 KO mice, an animal model of Fragile X Syndrome.\nThe Fmr1 KO mice (C57BL/6 background) were kindly provided the FRAXA Foundation. Mice were housed in groups of the same genotype in a temperature and humidity controlled room with a 12-h light-dark cycle (lights on 7 am to 7 pm). Testing was conducted during the light phase. Food and water were available ad libitum. Testing was conducted on Fmr1 KO mice and their wild-type littermates. They were housed in commercial plastic cages purchased in the UK. Experiments were conducted in line with the requirements of the UK Animals (Scientific Procedures) Act, 1986.\nThe dosing protocol used is shown below. Mice were dosed at 6-7 weeks by intraperitoneal (i.p.) infusion by osmotic pump (0.5 μl/hour) for 1 week. The solution of 0.9% saline was used as a vehicle, and 10 mice were dosed per each group."}, "[2]": {"assay": "Alkylperoxy radical scavenging assay (AIPH, AE-Trolox oxidation)", "protocol": "In a separate assay, alkylperoxy radicals were generated in vitro using the radical generator AIPH (2,2′-azobis-[2-(2-imidazolyn-2-yl)-propane) and the ability of tetracyclines to scavenge these radicals was determined. […] Also, the ability of Compound 1 and minocycline to specifically scavenge peroxynitrite-carbonate radicals was determined.\nIn this study, alkylperoxy radicals were generated in vitro using the radical generator AIPH (2,2′-azobis-[2-(2-imidazolyn-2-yl)-propane) and the ability of tetracyclines, such as Compound 1, to scavenge these radicals was determined.\nTrolox is a known scavenger of peroxyradicals. Structurally similar to a-tocopherol, Trolox reacts with peroxyradicals via a known mechanism with linear kinetics under excess oxygen conditions. In the presence of a competing antioxidant compound, the rate of Trolox oxidation will change based on the relative rate of oxidation and concentration of the competing antioxidant compound (Huang, et al., J. Agric. Food Chem. 2005, 25, 1841-1856). By measuring the effect of antioxidant concentration on the rate of degradation of Trolox, the relative antioxidant capacity of a compound can be determined. This principle is the basis of the widely used antioxidant capacity assay, ORAC (Huang, et al., J. Agric. Food Chem. 2002, 50, 1815-1821). Unlike ORAC which uses a fluorescent dye indicator, the assay described here directly measures the oxidation of the Trolox derivative, 2-aminoethyl-Trolox (AE-Trolox). This method eliminates interference of the fluorescent dye reaction by tetracycline compounds.\nTo the first column of a 96-well PCR plate (0.2 mL volume) was added 160 μL of TCWS. One well of the first column would equal one IC50 determination. […] To the remaining wells in columns 2-11 was added 80 μL of AET-WS. Using a multichannel pipettor, column 1 was serially diluted in 2-fold dilutions by removing 80 μL from column 1 and transferring with mixing to column 2. Column 2 was then diluted to column 3 and so on until column 11 where 80 μL of the diluted mixture was removed and discarded. Four wells of row 12 were designated as the 0 test compound/0 AIPH control to which 80 μL of AET-WS was added. One well of row 12 per test compound was designated as the 0 test compound control to which 80 μL of the AET-WS was added.\nThe plate was covered and incubated for 5 minutes at 37° C. upon which the reaction was initiated by addition of 20 μL of AIPH to columns 1-11 using a multichannel pipettor with mixing. The reaction was initiated similarly to the 0 test compound wells of column 12. To the 0 test compound/0 AIPH control wells was added 20 μL of PB buffer. The plate was incubated at 37° C. for 8 minutes (the reaction is linear for 10 minutes) and quenched by addition of 50 μL of AA to all wells with mixing. The plate was placed on ice for 5 minutes. Quenched assay mixtures were stable at room temperature for at least 24 hours.\nEach reaction mixture was analyzed for AE-Trolox by 2D-LCMS on a Shimadzu 2010 equipped with a loading column (Shim-pack MAYI-ODS, 4.6×10 mm) and a gradient column Phenomenex Luna C18(2) column, 3 um, 4.6×50 mm. Using an automated 2-position swithching valve, samples were loaded onto the loading column by Pump C and washed for 1 minute with loading buffer. At 1 minute, the valve was switched to elution position (Position B, reversed flow through loading column) and the samples were eluted through the gradient column. The loading buffer (Buffer C) was 10% acetonitrile in water with 0.2% formic acid and the gradient buffers were water+0.2% formic acid (A buffer) and acetonitrile+0.2% formic acid (B buffer). Typical injection volumes were 30 μL.\nFrom the TIC integration of AE-Trolox and AE-Trolox-d4, a ratio was calculated:\nRatio=AUCAE-Trolox/AUCAE-Trolox-d4\nPercent inhibition of AE-Trolox oxidation (measured as disappearance of AE-Trolox) was then determined by:\n% Inhibition=[1−((Ratio0−Ratiox)/(Ratioo−Ratiof))]*100"}, "GLP phototoxicity assay": {"assay": "GLP phototoxicity assay", "protocol": "The compound was also shown to be negative in a GLP phototoxicity assay. […] Both 14-day acute toxicity and 28-day toxicology study were performed in rats with Compound 1 along with minocycline for comparison. Animals were administered daily oral doses from 15 to 150 mg/kg for up to 4 weeks followed by a recovery period."}}, "note": "pIC50: −log10 of the molar value.", "data": [{"compound": "CCc1cc(N(C)C)c2c(c1O)C(=O)C1=C(O)[C@]3(O)C(=O)C(C(N)=O)=C(O)[C@@H](N(C)C)[C@@H]3C[C@@H]1C2", "note": "[Compound 1]", "values": [{"measurement": "Open Field Test - Trial 2, Mean time", "setting": "[1]; Fmr1 KO mice", "value": 97.100, "unit": "min"}, {"measurement": "Open Field Test - Trial 3, Mean time", "setting": "[1]; Fmr1 KO mice", "value": 72.600, "unit": "min"}, {"measurement": "Open Field Test - Trial 2, Mean time", "setting": "[1]; WT mice", "value": 83.900, "unit": "min"}, {"measurement": "Open Field Test - Trial 3, Mean time", "setting": "[1]; WT mice", "value": 68.300, "unit": "min"}, {"measurement": "pIC50", "setting": "[2]; 5 mM AIPH, 37° C., 8 minutes, read-out: IC50, inhibition of AE-Trolox oxidation (alkylperoxy radical scavenging)", "value": 4.90}, {"measurement": "Percent Trolox Activity", "setting": "[2]; relative to Trolox", "value": 71, "unit": "%"}, {"measurement": "Trolox Equivalents", "setting": "[2]; relative to Trolox", "value": 0.71}, {"measurement": "GLP phototoxicity assay result", "setting": "GLP phototoxicity assay", "value": "negative"}]}]}
